Experiment [1] in a line: cells. It counts as functional, cell-based. As to conditions: HEK-CNG.
The target in experiment [2] is T1, COUP transcription factor 2 (Homo sapiens, UniProt P24468).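 Further: HEK293 cells transiently cotransfected with COUP-TFII expression vector and reporter; luciferase reporter luminescence driven by COUP-TFII from the pX2-168 reporter plasmid.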
T1 sequence (P24468 whole entry): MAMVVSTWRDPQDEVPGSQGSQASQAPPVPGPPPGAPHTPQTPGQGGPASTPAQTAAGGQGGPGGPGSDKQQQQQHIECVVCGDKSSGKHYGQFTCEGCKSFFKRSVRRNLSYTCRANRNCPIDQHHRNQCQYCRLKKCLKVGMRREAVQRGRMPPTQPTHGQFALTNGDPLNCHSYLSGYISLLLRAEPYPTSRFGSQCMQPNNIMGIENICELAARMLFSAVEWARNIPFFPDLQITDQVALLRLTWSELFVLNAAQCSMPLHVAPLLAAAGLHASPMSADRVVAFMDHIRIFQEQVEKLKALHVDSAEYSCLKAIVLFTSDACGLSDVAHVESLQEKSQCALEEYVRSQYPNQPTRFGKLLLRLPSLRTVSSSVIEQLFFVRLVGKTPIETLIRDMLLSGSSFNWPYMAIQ
As to the kind of experiment: Luminescence-based cell-based high throughput dose response assay to identify inhibitors of COUP-TFII (NR2F2). It counts as functional.

The target of experiment [3] is Galanin receptor type 3 (Homo sapiens, UniProt O60755). As to the kind of experiment: Fluorescence-based cell-based primary high throughput dose response assay to identify antagonists of the Galanin Receptor 3 (GalR3). It counts as functional.
Galanin receptor type 3, sequence (O60755 whole entry): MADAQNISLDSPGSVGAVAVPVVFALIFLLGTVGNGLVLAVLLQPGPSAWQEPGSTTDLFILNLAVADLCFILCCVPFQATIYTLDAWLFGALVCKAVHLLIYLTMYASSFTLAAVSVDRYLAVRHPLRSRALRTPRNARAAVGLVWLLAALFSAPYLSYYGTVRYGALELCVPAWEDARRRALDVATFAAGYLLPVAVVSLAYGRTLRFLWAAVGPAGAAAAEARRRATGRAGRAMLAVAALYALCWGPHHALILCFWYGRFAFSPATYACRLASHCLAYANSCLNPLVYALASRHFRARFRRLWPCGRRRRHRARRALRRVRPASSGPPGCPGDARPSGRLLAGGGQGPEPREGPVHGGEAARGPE
The nature of experiment [4]: cytotoxicity in HEK-293T cells, dose response, cytotoxicity control for TCR NF-kB inhibitor project, luminescence, T-cell screen hits (AID 489026).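 Further: cells exposed to compound about 14 hours before the viability readout.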 Type of experiment: functional, cell-based.
Experiment [5] deals with INS1. Description: beta cell apoptosis inhibitors, cytokine rescue, dose response, luminescence, retest (AID 449756).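 Further: cell death triggered by IL-1 beta plus TNF-alpha plus IFN-gamma mixture; protective hits raise ATP signal compared with cytokine alone wells.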 Conditions: Rattus norvegicus. It counts as functional, cell-based.
Experiment [6] addresses Beta-lactamase (Salmonella choleraesuis (strain SC-B67), UniProt Q5J463). Description: Epi-absorbance-based counterscreen for selective VIM-2 inhibitors: dose response biochemical high throughput screening assay to identify inhibitors of TEM-1 serine-beta-lactamase. Background: Counterscreens check selectivity or assay interference.
In experiment [7] the target is T2, Beta-lactamase (Pseudomonas aeruginosa, UniProt Q79MP6). As to the kind of experiment: […] counterscreen for selective VIM-2 inhibitors: dose response biochemical high throughput screening assay to identify inhibitors of IMP-1 metallo-beta-lactamase.
T2 sequence (Q79MP6 whole entry): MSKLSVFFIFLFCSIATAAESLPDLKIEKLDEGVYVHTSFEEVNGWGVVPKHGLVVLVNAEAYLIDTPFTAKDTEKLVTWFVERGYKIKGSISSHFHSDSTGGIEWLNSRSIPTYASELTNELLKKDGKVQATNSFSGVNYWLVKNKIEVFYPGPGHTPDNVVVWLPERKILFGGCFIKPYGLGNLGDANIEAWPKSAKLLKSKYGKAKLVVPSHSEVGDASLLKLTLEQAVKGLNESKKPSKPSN
The target in experiment [8] is T2, Beta-lactamase. Description: IMP-1 metallo-beta-lactamase inhibitors, dose response, selectivity assay for VIM-2 inhibitor project, biochemical, epi-absorbance (AID 1920).
Experiment [9] addresses Mu-type opioid receptor (Homo sapiens, UniProt P35372). It counts as functional, cell-based.
For experiment [10], the target named is 5-hydroxytryptamine receptor 2A (Mus musculus, UniProt P35363). It counts as functional, cell-based.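 Further: CHO-K1 cells with tagged receptor and beta-arrestin; agonist potency measured as compound-induced activation of the receptor.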
5-hydroxytryptamine receptor 2A, sequence (P35363 whole entry): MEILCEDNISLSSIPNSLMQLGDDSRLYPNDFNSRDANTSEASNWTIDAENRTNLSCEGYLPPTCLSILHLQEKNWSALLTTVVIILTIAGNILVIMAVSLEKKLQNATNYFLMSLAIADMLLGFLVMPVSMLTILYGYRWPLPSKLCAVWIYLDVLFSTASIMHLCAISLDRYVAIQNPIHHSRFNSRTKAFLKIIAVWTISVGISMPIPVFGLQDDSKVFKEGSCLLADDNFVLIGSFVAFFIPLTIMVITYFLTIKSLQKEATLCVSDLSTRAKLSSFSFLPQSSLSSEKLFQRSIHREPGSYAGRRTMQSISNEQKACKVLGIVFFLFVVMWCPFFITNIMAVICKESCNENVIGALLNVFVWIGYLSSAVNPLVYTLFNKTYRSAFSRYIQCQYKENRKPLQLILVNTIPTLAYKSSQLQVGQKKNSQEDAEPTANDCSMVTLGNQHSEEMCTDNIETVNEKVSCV
Experiment [11] has as its target Paired box protein Pax-8 (Homo sapiens, UniProt Q06710). Description: inhibitors of PAX8-driven TPO luciferase reporter, dose response, RMG-I cells, cherry-pick (AID 687027).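 Further: luciferase reporter driven by Pax8 target thyroperoxidase promoter measured by SteadyGlo luminescence.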 It counts as functional, cell-based. (In general: In a reporter assay the amount or activity of a reporter protein is the signal.)
The nature of experiment [12]: inhibitors of CMV-promoter luciferase reporter, dose response, counter-screen for Pax8 inhibitor project, cell-based, HEK293, luminescence, dry powder (AID 743020). Type of experiment: functional.
The nature of experiment [13]: cytotoxicity in OVCAR8 ovarian cancer cells, dose response, PAX8 project, cell-based, plate reader, dry powder samples (AID 743197). Type of experiment: functional. Conditions: OVCAR-8.
Experiment [14] can be described thus: IGROV1 ovarian cancer cell cytotoxicity, dose response, PAX8 inhibitor project, plate reader, dry powder samples (AID 743043). It counts as functional, cell-based. Conditions: IGROV-1.
Experiment [15] in a line: NIH:OVCAR-3 ovarian cancer cell cytotoxicity, dose response, PAX8 inhibitor project, plate reader, dry powder samples (AID 743044). Type of experiment: functional, cell-based.
Experiment [16] can be described thus: T. cruzi intracellular amastigote growth inhibition, dose response, imaging, CA-I/72 strain, bovine embryo skeletal muscle, dry powder (AID 651885). Type of experiment: functional, cell-based.

SMILES strings stand for the structures. The source made the active and inactive calls.

The values below come from ChEMBL document CHEMBL1201862, “PubChem BioAssay data set” (2004).

Usually EC50 stands for the concentration that produces a half-maximal response. Broadly, the IC50 is the point on the concentration scale where inhibition reaches its midpoint. What is called AC50 is the concentration giving half of the maximal activity seen.

Paired box protein Pax-8, sequence (Q06710 whole entry): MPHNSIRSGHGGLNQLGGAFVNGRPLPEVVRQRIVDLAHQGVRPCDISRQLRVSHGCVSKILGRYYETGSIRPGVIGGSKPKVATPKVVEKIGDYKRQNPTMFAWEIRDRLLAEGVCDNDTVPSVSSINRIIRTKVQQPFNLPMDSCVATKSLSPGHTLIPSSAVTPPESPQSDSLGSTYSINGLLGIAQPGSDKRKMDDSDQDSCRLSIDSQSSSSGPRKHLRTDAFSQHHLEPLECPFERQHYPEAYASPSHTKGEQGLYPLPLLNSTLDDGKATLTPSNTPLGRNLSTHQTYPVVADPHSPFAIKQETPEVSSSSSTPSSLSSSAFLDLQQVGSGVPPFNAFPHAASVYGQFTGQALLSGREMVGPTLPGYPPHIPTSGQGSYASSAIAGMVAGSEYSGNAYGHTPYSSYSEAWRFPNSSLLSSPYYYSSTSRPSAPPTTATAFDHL
Mu-type opioid receptor, sequence (P35372 whole entry): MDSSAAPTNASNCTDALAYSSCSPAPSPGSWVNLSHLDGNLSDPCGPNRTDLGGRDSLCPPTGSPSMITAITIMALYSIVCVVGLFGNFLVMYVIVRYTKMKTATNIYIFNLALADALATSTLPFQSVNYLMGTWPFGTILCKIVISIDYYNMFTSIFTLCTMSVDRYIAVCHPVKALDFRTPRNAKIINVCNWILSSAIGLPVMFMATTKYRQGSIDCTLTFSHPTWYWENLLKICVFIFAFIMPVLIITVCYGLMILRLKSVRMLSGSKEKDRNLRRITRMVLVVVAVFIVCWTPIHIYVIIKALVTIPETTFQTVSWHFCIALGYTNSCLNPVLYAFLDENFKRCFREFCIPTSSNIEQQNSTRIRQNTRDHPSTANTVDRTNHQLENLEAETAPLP
Beta-lactamase (Salmonella choleraesuis (strain SC-B67), UniProt Q5J463), sequence (Q5J463 whole entry): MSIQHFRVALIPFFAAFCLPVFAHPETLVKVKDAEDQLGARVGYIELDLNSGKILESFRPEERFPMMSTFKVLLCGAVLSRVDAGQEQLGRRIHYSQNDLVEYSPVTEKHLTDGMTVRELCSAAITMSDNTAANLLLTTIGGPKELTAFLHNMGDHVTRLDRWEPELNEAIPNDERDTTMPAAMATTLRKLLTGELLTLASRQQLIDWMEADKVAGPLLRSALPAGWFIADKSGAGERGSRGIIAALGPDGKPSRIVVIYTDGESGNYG

With `Cn1nc(C(C)(C)C)cc1C(=O)NCc1cc(F)cc2c1OCOC2`, in [1], the EC50 was > 29.9 µM (inactive). For the same molecule, the values for the IC50 in experiment [2], in experiment [3] and in experiment [4] were 6.69 µM (active), 0.987 µM (active) and > 80 µM (inactive), respectively. In addition, the AC50 in experiment [5] is 4.13 µM (active).
Regarding `CC1=C(C(=O)O)N2C(=O)C(NC(=O)c3nn(C)cc3[N+](=O)[O-])C2SC1` (configuration not stated), the IC50 in experiment [6], in experiment [7] and in experiment [8] was > 59.6 µM (inactive) each time.
For the molecule `O=C(C1CCN(CCCc2ccccc2)CC1)N1CCCCC1`, the EC50 in experiment [9] is 92.5 µM (inactive); in experiment [10], 76.1 µM (inactive).
In the case of `C[C@@H]1CCCCO[C@H](CN(C)CC2CCCCC2)[C@H](C)CN([C@@H](C)CO)C(=O)c2cc(NS(=O)(=O)c3ccc(Cl)cc3)ccc2O1`, the half-maximal activity concentration (AC50) in experiment [11] is 6.43 µM (active); in experiment [12] it was 50.5 µM (active).
For the molecule `Cc1ccc(S(=O)(=O)N(C)C[C@H]2OCCCC[C@H](C)Oc3ccc(NS(=O)(=O)c4ccc(Cl)cc4)cc3C(=O)N([C@H](C)CO)C[C@@H]2C)cc1`, the AC50 in experiment [11] was 4.09 µM (active); in [13], 31.7 µM (active); in experiment [14], 45.7 µM (active); in experiment [15], 17.9 µM (active).
As to `CNC[C@@H]1Oc2c(NC(=O)c3ccncc3)cccc2C(=O)N(C(C)C)C[C@H]1C`, the IC50 in experiment [16] was > 20 µM (inactive).
